According to ChEMBL document CHEMBL4819050, “Discovery of a novel series of guanidinebenzoates as gut-restricted enteropeptidase and trypsin dual inhibitors for the treatment of metabolic syndrome” (Bioorg Med Chem Lett, 2021):

Assays:
[1] = target: Enteropeptidase (Homo sapiens) (UniProt P98073); experiment: Inhibition of full length recombinant human EP expressed in CHO cells assessed as protease activity using […] as substrate at 0.1 uM by fluorescence assay relative to control; set-up: scale not given: the % may be the effect or the level left
[2] = target: Enteropeptidase (Homo sapiens) (UniProt P98073); experiment: Inhibition of full length recombinant human EP expressed in CHO cells assessed as protease activity using […] as substrate at 1 uM by fluorescence assay relative to control; set-up: scale not given: the % may be the effect or the level left
[3] = target: Enteropeptidase (Homo sapiens) (UniProt P98073); experiment: Inhibition of full length recombinant human EP expressed in CHO cells assessed as protease activity using […] as substrate at 10 uM by fluorescence assay relative to control; set-up: scale not given: the % may be the effect or the level left
Bos taurus [4] = organism: Bos taurus; experiment: Inhibition of bovine trypsin assessed as protease activity using D-CHA-AR-AMC as substrate at 0.1 uM by fluorescence assay relative to control; set-up: scale not given: the % may be the effect or the level left
Bos taurus [5] = organism: Bos taurus; experiment: Inhibition of bovine trypsin assessed as protease activity using D-CHA-AR-AMC as substrate at 1 uM by fluorescence assay relative to control; set-up: scale not given: the % may be the effect or the level left
Bos taurus [6] = organism: Bos taurus; experiment: Inhibition of bovine trypsin assessed as protease activity using D-CHA-AR-AMC as substrate at 10 uM by fluorescence assay relative to control; set-up: scale not given: the % may be the effect or the level left
[7] = Apparent permeability from apical to basolateral side in dog MDCK cells; type: ADME, cell-based, Canis lupus familiaris
[8] = target: Enteropeptidase (Homo sapiens) (UniProt P98073); experiment: Inhibition of full length recombinant human EP expressed in CHO cells assessed as ratio of Kinact/Kiapp; type: cell-based
Bos taurus [9] = organism: Bos taurus; experiment: Inhibition of bovine trypsin assessed as ratio of Kinact/Kiapp

Sequence of Enteropeptidase (Homo sapiens) (P98073 2-784 limits assumed): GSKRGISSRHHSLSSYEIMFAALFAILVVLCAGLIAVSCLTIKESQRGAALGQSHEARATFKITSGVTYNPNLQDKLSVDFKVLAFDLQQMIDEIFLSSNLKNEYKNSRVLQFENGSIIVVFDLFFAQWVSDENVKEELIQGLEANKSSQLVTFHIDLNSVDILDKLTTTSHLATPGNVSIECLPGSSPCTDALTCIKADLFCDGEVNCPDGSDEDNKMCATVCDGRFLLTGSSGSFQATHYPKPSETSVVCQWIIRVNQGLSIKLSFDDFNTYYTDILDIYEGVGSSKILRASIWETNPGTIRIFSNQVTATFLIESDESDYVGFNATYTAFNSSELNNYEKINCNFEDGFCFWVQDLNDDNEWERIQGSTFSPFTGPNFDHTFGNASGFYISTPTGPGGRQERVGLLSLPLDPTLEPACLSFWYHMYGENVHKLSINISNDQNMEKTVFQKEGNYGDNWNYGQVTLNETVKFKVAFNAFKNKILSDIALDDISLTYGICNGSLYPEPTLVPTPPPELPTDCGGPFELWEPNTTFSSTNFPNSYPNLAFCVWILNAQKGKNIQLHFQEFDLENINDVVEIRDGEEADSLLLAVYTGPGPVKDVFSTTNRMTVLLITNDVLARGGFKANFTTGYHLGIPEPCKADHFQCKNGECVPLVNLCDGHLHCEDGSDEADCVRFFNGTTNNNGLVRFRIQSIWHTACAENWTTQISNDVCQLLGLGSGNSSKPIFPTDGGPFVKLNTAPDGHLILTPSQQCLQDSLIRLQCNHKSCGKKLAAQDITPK
Sequence of Enteropeptidase (Homo sapiens) (P98073 785-1019 limits assumed): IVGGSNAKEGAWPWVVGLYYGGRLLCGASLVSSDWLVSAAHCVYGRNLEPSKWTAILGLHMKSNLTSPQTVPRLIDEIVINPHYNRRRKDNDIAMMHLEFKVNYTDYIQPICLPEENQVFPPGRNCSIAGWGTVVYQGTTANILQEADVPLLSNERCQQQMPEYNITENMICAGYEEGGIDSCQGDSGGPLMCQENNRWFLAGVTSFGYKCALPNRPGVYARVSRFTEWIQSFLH

SMILES	Activity [1]	Activity [2]	Activity [3]	Activity (Bos taurus [4])	Activity (Bos taurus [5])	Activity (Bos taurus [6])	Papp A→B [7]	Ratio [8]	Ratio (Bos taurus [9])
N=C(N)Nc1ccc(C(=O)Oc2ccc(CC(=O)O)n3ncnc23)s1	82%	100%	100%	93.8%	99.9%	99.8%			
CNC(=N)Nc1ccc(C(=O)Oc2ccc(CC(=O)O)n3ncnc23)cc1	15.3%	80.1%	97.9%	9.6%	57.1%	97.7%			
COc1cc(C(=O)Oc2ccc(CC(=O)O)n3ncnc23)ccc1NC(=N)N	20.8%	87.1%	101%	13.8%	72.4%	99.9%			
N=C(N)Nc1ccc(C(=O)Oc2ccc(CC(=O)NCC(=O)O)n3ncnc23)cc1	48.1%	101%	100%	99.7%	100%	100%	1.03 ×10⁻⁶ cm/s		
N=C(N)Nc1ccc(C(=O)Oc2ccc(CC(=O)O)n3ncnc23)c(F)c1	99.4%	100%	100%	97.2%	99.7%	100%			
N=C(NN)c1ccc(C(=O)Oc2ccc(CC(=O)O)n3ncnc23)cc1	0.5%	12.2%	51.8%	1.62%	2.74%	25.5%			
N=C(N)Nc1ccc(C(=O)Oc2ccc(CC(=O)O)n3ncnc23)cc1Cl	18.2%	84.4%	101%	6.34%	56.6%	99.8%			
O=C(O)Cc1ccc(OC(=O)c2ccc(NC3=NCCN3)cc2)c2ncnn12	-0.28%	-2.47%	-2.75%	0.21%	-2.97%	-7.45%			
N=C(N)Nc1ccc(C(=O)Oc2ccc(CC(=O)O)n3ncnc23)cc1O	34.3%	92.1%	101%	12.4%	73.1%	100%			
N#CNC(=N)c1ccc(C(=O)Oc2ccc(CC(=O)O)n3ncnc23)cc1	-1.6%	1.9%	13.6%	-2.06%	2.46%	35.8%			
N=C(N)Nc1ccc(C(=O)Oc2ccc(CC(=O)N[C@@H](CC(=O)O)C(=O)O)n3ccnc23)cc1	81.2%	100%	100%	99.3%	100%	100%	0.75 ×10⁻⁶ cm/s		
O=C(O)Cc1ccc(OC(=O)c2ccc(C3=NCCN3)cc2)c2ncnn12	4.69%	16.9%	58.6%	-0.36%	2.66%	21.6%			
C#CCOCCOCC#Cc1ccc(CC(=O)O)n2ncnc12	63%	98.5%	99.8%	52.9%	99.6%	100%		52800 M⁻¹ s⁻¹	59400 M⁻¹ s⁻¹
N=C(N)Nc1ccc(C(=O)Oc2ccc(CC(=O)O)n3ncnc23)c(C(F)(F)F)c1	4.14%	38.5%	98.9%	2.31%	16.6%	88.7%			
CC(=N)Nc1ccc(C(=O)Oc2ccc(CC(=O)O)n3ncnc23)cc1	47.8%	99.6%	100%	11.5%	68%	99.7%			
N=C(N)Nc1ccc(C(=O)Oc2ccc(C3OC(=O)NC3=O)n3ncnc23)cc1 (configuration not stated)	73%	101%	100%	99.8%	100%	100%			
C/C(=N\O)Nc1ccc(C(=O)Oc2ccc(CC(=O)O)n3ncnc23)cc1	-10.7%	-10.1%	-10.8%	-8.04%	-0.45%	10.1%			
N=C(N)Nc1ccc(C(=O)Oc2ccc(CC(=O)O)n3ncnc23)c2ccoc12	36.3%	98.8%	100%	14.6%	80%	99.9%			
CS(=O)(=O)NC(=O)Cc1ccc(OC(=O)c2ccc(NC(=N)N)cc2)c2ncnn12	101%	100%	100%	98.8%	100%	99.9%	0.51 ×10⁻⁶ cm/s	181000 M⁻¹ s⁻¹	163000 M⁻¹ s⁻¹
C/N=C(\NC)Nc1ccc(C(=O)Oc2ccc(CC(=O)O)n3ncnc23)cc1	1.35%	1.32%	12.6%	-1.72%	0.59%	9.42%			
